Test results published in patent EP4692061A1, “LOW-MOLECULAR-WEIGHT COMPOUND HAVING CEREBLON-BINDING ACTIVITY, AND USE THEREOF” (Aevis Bio, Inc., priority 2023, dated 2024).

What was measured:
[1] = system: A549; assay: Tumor cell viability, CCK-8 assay, A549; format: cell-based; settings: A549 (human lung cancer); compound treatment 1uM; 2 days
Description: (§1) To examine whether the compounds having CRBN-binding activity according to the present invention exert tumor cell apoptosis effects, the assay was conducted using various human cancer cell lines, including human multiple myeloma cell lines (MM.1S and MM.1R-LR), a human breast cancer cell line (MDA-MB-231), a human lung cancer cell line (A549), a human rhabdomyosarcoma cell line (RD), and a human lymphoma cell line (Jeko-1).
(§2) The MM.1S, MM.1R-LR, MDA-MB-231, A549, RD, and Jeko-1 cell lines were obtained from the American Type Culture Collection (ATCC, Manassas, VA, USA) and cultured in RPMI 1640 medium (Corning, MD, USA) or DMEM (Corning, MD, USA) supplemented with 10% fetal bovine serum (FBS) (Corning, MD, USA), 100 U/mL penicillin (Corning, MD, USA), and 100 µg/mL streptomycin (Corning, MD, USA) at 37°C in a 5% CO2 incubator for 24 hours. The cells were seeded at a density of 1 × 10^4 cells/well in 96-well plates and incubated for 24 hours. After incubation, the test compounds dissolved in dimethyl sulfoxide (DMSO, CAS No.: 67-68-5) were serially diluted to a final concentration of 10 µM and applied to the cells. Following an additional incubation for 2 to 5 days, the analysis was performed using a CCK-8 assay kit (Dojindo, Japan) according to the manufacturer's instructions.

[2] = target: cereblon (CRBN) (Homo sapiens, UniProt Q96SW2); assay: In vitro CRBN binding assay (AlphaScreen, competitive inhibition of the PROTAC assay); settings: Table 1; AlphaScreen, PROTAC Optimization Kit for BET Bromodomain-Cereblon Binding; read-out: Alpha IC50
[3] = system: Jeko-1; assay: Tumor cell viability, CCK-8 assay, Jeko-1; format: cell-based; settings: Jeko-1 (human lymphoma); compound treatment 1uM; 3 days
Description: as §1, §2

[4] = system: MM.1S; assay: Tumor cell viability, CCK-8 assay, MM.1S; format: cell-based; settings: MM.1S (human multiple myeloma); compound treatment 1uM; 5 days
Description: as §1, §2

[5] = system: RD; assay: Tumor cell viability, CCK-8 assay, RD; format: cell-based; settings: RD (human rhabdomyosarcoma); compound treatment 1uM; 3 days
Description: as §1, §2

[6] = system: MDA-MB-231; assay: Tumor cell viability, CCK-8 assay, MDA-MB-231; format: cell-based; settings: MDA-MB-231 (human breast cancer); compound treatment 1uM; 2 days
Description: as §1, §2

[7] = system: MM.1R-LR; assay: Tumor cell viability, CCK-8 assay, MM.1R-LR; format: cell-based; settings: MM.1R-LR (drug-resistant human multiple myeloma); compound treatment 1uM; 5 days
Description: as §1, §2

Structure (SMILES) | Cell viability (% of control) [1] | IC50 [2] | Cell viability (% of control) [3] | Cell viability (% of control) [4] | Cell viability (% of control) [5] | Cell viability (% of control) [6] | Cell viability (% of control) [7]
O=C1CCC(c2cccc(NS(=O)(=O)c3cccc(NC(=O)c4ccc(CCCCCl)cc4)c3)c2)C(=O)N1 (centres unmarked) [AEV41005, 4-(4-chlorobutyl)-N-(3-(N-(3-(2,6-dioxopiperidin-3-yl)phenyl)sulfamoyl)phenyl)benzamide] | 36.8 % of control | 1200 nM | 4.1 % of control | 10.7 % of control | 28.7 % of control | 42.2 % of control | 58.2 % of control
CCc1ccc(C(=O)Nc2cccc(S(=O)(=O)Nc3cccc(C4CCC(=O)NC4=O)c3)c2)cc1 (centres unmarked) [AEV41010, N-(3-(N-(3-(2,6-dioxopiperidin-3-yl)phenyl)sulfamoyl)phenyl)-4-ethylbenzamide] | 96.7 % of control | 420 nM |  | 88.4 % of control |  | 95.7 % of control | 66.1 % of control
CCCc1ccc(C(=O)Nc2cccc(S(=O)(=O)Nc3cccc(C4CCC(=O)NC4=O)c3)c2)cc1 (centres unmarked) [AEV41011, N-(3-(N-(3-(2,6-dioxopiperidin-3-yl)phenyl)sulfamoyl)phenyl)-4-propylbenzamide] | 98.9 % of control | 700 nM |  | 56.9 % of control |  | 96.7 % of control | 66.1 % of control
O=C1CCC(c2cccc(NS(=O)(=O)c3cccc(NC(=O)c4ccc(CCl)cc4)c3)c2)C(=O)N1 (centres unmarked) [AEV41002, 4-(chloromethyl)-N-(3-(N-(3-(2,6-dioxopiperidin-3-yl)phenyl)sulfamoyl)phenyl)benzamide] |  | 170 nM |  | 97.8 % of control |  |  | 90.2 % of control
O=C1CCC(c2cccc(NS(=O)(=O)c3cccc(NC(=O)c4ccc(CCCCCCl)cc4)c3)c2)C(=O)N1 (centres unmarked) [AEV41047, 4-(5-chloropentyl)-N-(3-(N-(3-(2,6-dioxopiperidin-3-yl)phenyl)sulfamoyl)phenyl)benzamide] | 32.2 % of control | 1880 nM | 15.7 % of control | 14.9 % of control | 20.5 % of control | 28.2 % of control | 56.9 % of control
CCCCCCc1ccc(C(=O)Nc2cccc(S(=O)(=O)Nc3cccc(C4CCC(=O)NC4=O)c3)c2)cc1 (centres unmarked) [AEV41083, N-(3-(N-(3-(2,6-dioxopiperidin-3-yl)phenyl)sulfamoyl)phenyl)-4-hexylbenzamide] | 29.5 % of control | 910 nM | 9.7 % of control | 17.8 % of control | 31.4 % of control | 35.5 % of control | 54.7 % of control
Cc1ccc(C(=O)Nc2cccc(S(=O)(=O)Nc3cccc(C4CCC(=O)NC4=O)c3)c2)cc1 (centres unmarked) [AEV41009, N-(3-(N-(3-(2,6-dioxopiperidin-3-yl)phenyl)sulfamoyl)phenyl)-4-methylbenzamide] |  | 540 nM |  | 92.9 % of control |  |  | 81.3 % of control
O=C1CCC(c2cccc(NS(=O)(=O)c3cccc(NC(=O)c4ccc(CCCCCCCl)cc4)c3)c2)C(=O)N1 (centres unmarked) [AEV41048, 4-(6-chlorohexyl)-N-(3-(N-(3-(2,6-dioxopiperidin-3-yl)phenyl)sulfamoyl)phenyl)benzamide] | 47.0 % of control | 2590 nM | 13.0 % of control | 10.8 % of control | 54.0 % of control | 45.6 % of control | 51.5 % of control
CCCCCc1ccc(C(=O)Nc2cccc(S(=O)(=O)Nc3cccc(C4CCC(=O)NC4=O)c3)c2)cc1 (centres unmarked) [AEV41013, N-(3-(N-(3-(2,6-dioxopiperidin-3-yl)phenyl)sulfamoyl)phenyl)-4-pentylbenzamide] | 25.8 % of control | 360 nM | 11.8 % of control | 15.3 % of control | 30.0 % of control | 38.5 % of control | 55.2 % of control
CCCCc1ccc(C(=O)Nc2cccc(S(=O)(=O)Nc3cccc(C4CCC(=O)NC4=O)c3)c2)cc1 (centres unmarked) [AEV41012, 4-butyl-N-(3-(N-(3-(2,6-dioxopiperidin-3-yl)phenyl)sulfamoyl)phenyl)benzamide] | 94.0 % of control | 940 nM | 37.7 % of control | 7.4 % of control | 79.7 % of control | 78.7 % of control | 56.7 % of control
O=C1CCC(c2cccc(NS(=O)(=O)c3cccc(NC(=O)c4ccc(CCCCl)cc4)c3)c2)C(=O)N1 (centres unmarked) [AEV41004, 4-(3-chloropropyl)-N-(3-(N-(3-(2,6-dioxopiperidin-3-yl)phenyl)sulfamoyl)phenyl)benzamide] | 101.9 % of control | 1570 nM |  | 10.5 % of control | 78.6 % of control | 83.5 % of control | 63.8 % of control
CCCCCCCCc1ccc(C(=O)Nc2cccc(S(=O)(=O)Nc3cccc(C4CCC(=O)NC4=O)c3)c2)cc1 (centres unmarked) [AEV40264, N-(3-(N-(3-(2,6-dioxopiperidin-3-yl)phenyl)sulfamoyl)phenyl)-4-octylbenzamide] | 61.8 % of control | 320 nM | 5.8 % of control | 13.3 % of control | 67.9 % of control | 46.3 % of control | 79.8 % of control
O=C1CCC(c2cccc(NS(=O)(=O)c3cccc(NC(=O)c4ccc(CCCl)cc4)c3)c2)C(=O)N1 (centres unmarked) [AEV41003, 4-(2-chloroethyl)-N-(3-(N-(3-(2,6-dioxopiperidin-3-yl)phenyl)sulfamoyl)phenyl)benzamide] | 104.0 % of control | 770 nM |  | 92.1 % of control |  | 97.0 % of control | 79.9 % of control
CCCCCCCc1ccc(C(=O)Nc2cccc(S(=O)(=O)Nc3cccc(C4CCC(=O)NC4=O)c3)c2)cc1 (centres unmarked) [AEV40204, N-(3-(N-(3-(2,6-dioxopiperidin-3-yl)phenyl)sulfamoyl)phenyl)-4-heptylbenzamide] | 33.6 % of control | 440 nM | 11.6 % of control | 3.3 % of control | 50.8 % of control | 40.4 % of control | 49.4 % of control
